Source: patent US20260317325A1, “AMORPHOUS SUBSTANCE AND CRYSTAL OF DIOXOPIPERIDINE COMPOUND OR PHARMACEUTICALLY ACCEPTABLE SALT THEREOF, PREPARATION METHOD, AND USE” (JIANGSU HENGRUI PHARMACEUTICALS CO., LTD., priority 2023, published 2026)
Structures can show the parent of a compound that is named as a salt. Where two headings read alike, the source gives them in different places.

Tests used:
[1] = high-temperature and high-humidity conditions
Description: Influencing factor stability study: Samples of the free-state form were taken, spread in open containers, and left to stand under high-temperature (40° C. and 60° C.) and high-humidity (RH 75% and RH 92.5%) conditions for 30 days to study its stability.
Influencing factor stability study of salt forms: Samples of the salt forms were taken, spread in open containers, and left to stand under high-temperature (40° C. and 60° C.) and high-humidity (RH 75%) conditions for 30 days to study their stability.

[2] = Description: Long-term/accelerated stability study: Samples of the free-state form were sealed in aluminum foil bags and left to stand under 25° C./60% RH and 40° C./75% RH conditions to study its stability.
Long-term/accelerated stability of salt forms: Samples were sealed in aluminum foil bags and left to stand under 25° C./60% RH and 40° C./75% RH conditions to study their stability.

Remark: listed apart in the source
[3] = long-term accelerated conditions for 6 months

C[C@H]1CC2(CCN(c3ccc(C(=O)N4CCC(CN5CCN(c6cccc(N[C@H]7CCC(=O)NC7=O)c6)CC5)CC4)cc3F)CC2)CN1c1ccc(C#N)c(Cl)c1 [free-state amorphous form]
stability (in words) [1]: good chemical stability
stability (in words) [2, 3]: good physical and chemical stability

C[C@H]1CC2(CCN(c3ccc(C(=O)N4CCC(CN5CCN(c6cccc(N[C@H]7CCC(=O)NC7=O)c6)CC5)CC4)cc3F)CC2)CN1c1ccc(C#N)c(Cl)c1 [Amorphous form of maleate]
stability (in words) ([2]; long-term conditions for 6 months): good chemical and physical stability

C[C@H]1CC2(CCN(c3ccc(C(=O)N4CCC(CN5CCN(c6cccc(N[C@H]7CCC(=O)NC7=O)c6)CC5)CC4)cc3F)CC2)CN1c1ccc(C#N)c(Cl)c1 [crystal form A of D-mandelate]
stability (in words) ([2]; long-term accelerated conditions for 6 months, listed as crystal form A of mandelate): good chemical and physical stability
crystal form before and after DVS testing (XRPD): the crystal form did not change before and after DVS testing
desorption versus adsorption process (humidity 0% to 95% RH): the desorption process of the sample overlapped with its adsorption process

C[C@H]1CC2(CCN(c3ccc(C(=O)N4CCC(CN5CCN(c6cccc(N[C@H]7CCC(=O)NC7=O)c6)CC5)CC4)cc3F)CC2)CN1c1ccc(C#N)c(Cl)c1 [Crystal form B of succinate]
stability (in words) [2, 3]: good chemical and physical stability
